The target of the assay is Histone-lysine N-methyltransferase, H3 lysine-79 specific (Homo sapiens, UniProt Q8TEK3). Nature of the assay: Enzyme Assay. The protocol:
Assay of DOT1L enzymatic activity were performed under balanced conditions using a radiometric assay.

In general, Kd refers to the free concentration of one partner at which half of the binding sites on the other are occupied at equilibrium, for simple one-to-one binding. A high value points to a looser complex. A word on the Ki: it is a dissociation constant, usually derived from enzyme kinetics or from competition with a known ligand. Lower therefore signals a stronger hold on the target.

Chain of Histone-lysine N-methyltransferase, H3 lysine-79 specific (Q8TEK3 whole entry): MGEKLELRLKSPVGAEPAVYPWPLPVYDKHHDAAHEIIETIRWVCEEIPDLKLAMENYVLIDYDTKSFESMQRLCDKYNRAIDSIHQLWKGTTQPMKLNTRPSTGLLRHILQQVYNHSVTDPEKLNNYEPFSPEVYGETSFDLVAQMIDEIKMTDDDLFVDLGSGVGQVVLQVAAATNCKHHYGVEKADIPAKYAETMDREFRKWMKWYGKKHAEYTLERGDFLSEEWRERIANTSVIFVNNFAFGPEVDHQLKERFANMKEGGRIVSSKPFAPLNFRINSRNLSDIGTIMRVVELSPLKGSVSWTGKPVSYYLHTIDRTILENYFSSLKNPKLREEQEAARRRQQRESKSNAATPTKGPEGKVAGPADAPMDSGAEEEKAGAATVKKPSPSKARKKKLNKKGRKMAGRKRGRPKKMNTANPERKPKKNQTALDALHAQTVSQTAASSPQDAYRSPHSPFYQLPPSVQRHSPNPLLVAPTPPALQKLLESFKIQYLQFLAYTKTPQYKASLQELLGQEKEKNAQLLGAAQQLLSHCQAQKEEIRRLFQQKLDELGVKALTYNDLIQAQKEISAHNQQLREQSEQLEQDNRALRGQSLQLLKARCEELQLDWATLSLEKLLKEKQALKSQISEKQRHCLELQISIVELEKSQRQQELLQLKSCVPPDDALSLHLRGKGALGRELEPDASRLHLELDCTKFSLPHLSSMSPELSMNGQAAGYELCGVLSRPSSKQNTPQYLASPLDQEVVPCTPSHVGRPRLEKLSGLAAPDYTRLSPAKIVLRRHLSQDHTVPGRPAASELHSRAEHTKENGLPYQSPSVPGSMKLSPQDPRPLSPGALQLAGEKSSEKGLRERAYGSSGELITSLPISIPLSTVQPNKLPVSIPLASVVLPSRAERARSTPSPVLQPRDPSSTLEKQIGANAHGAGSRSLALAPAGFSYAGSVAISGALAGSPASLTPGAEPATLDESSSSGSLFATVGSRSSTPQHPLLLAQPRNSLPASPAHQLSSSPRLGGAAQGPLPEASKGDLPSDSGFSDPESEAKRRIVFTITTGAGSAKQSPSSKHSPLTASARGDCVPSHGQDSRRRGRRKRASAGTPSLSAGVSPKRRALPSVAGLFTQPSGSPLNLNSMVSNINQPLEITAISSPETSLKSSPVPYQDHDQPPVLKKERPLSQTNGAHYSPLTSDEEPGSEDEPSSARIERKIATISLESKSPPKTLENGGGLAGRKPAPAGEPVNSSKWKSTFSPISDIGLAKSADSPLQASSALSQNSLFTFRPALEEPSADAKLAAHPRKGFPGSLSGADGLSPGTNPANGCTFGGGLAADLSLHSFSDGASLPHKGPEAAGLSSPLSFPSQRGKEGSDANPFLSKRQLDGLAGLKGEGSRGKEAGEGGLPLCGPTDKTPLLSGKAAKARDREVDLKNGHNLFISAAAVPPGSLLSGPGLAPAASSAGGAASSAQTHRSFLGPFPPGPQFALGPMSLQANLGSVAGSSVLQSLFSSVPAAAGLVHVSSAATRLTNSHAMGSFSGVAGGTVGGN

The molecule `CN(CCNC(=O)Nc1ccc(C(C)(C)C)cc1)CC1OC(n2cnc3c(N)ncnc32)[C@H](O)[C@@H]1O` (some centres not stated) [EPZ003647] yielded a Kd of 167 nM and a Ki of 845 nM.

The values are drawn from BindingDB's records for doi:10.1111/cbdd.12050 (Epizyme, 2012).
